Columns and labels:
paw of rats = assay: Pharmacological test for anti-inflammatory properties (carrageenan rat paw swelling); assay type: in vivo; conditions: oral 1 hour before carrageenan (0.05 ml of 1%), swelling 4 hours after injection by plethysmography, dose not given
Experimental: 1. Pharmacological test for anti-inflammatory properties.
The compounds to be tested are given as freshly prepared solutions or suspensions by oral route 1 hour before injecting the paw of rats with carrageenan which is a known inflammatory agent.
The inflammatory agent (carrageenan) either in solution or suspension is then injected into the plantar tissue of the right hind paw of each rat, the left paw remaining untreated and serving as control. Each animal receives, for example, 0.05 ml of an aqueous solution containing 1% by weight of carrageenan and 0.9% of sodium chloride.
4 hours after the injection of the inflammatory agent, the importance of swelling is determined by plethysmography and is expressed as a percent of the volume of the control paw.
The anti-inflammatory effect expressed as a percentage of inhibition is obtained by comparison between rats treated with the anti-inflammatory compound and a control group of rats.

rats = assay: Pharmacological test for diuretic properties (urine volume); assay type: in vivo; conditions: 50 mg/kg gastric gavage, 25 ml/kg saline s.c., urine collected 4 hours, ml/kg of body weight
Experimental: 2. Pharmacological tests for diuretic properties Lots of 3 rats weighting 250-300 g have been constituted at random, each of them being submitted to the same treatment. The compound to be tested was administered by .[.gastric gavage at a dose of 50 ml/kg as a solution or a.]. .Iadd.gastric gavage at a dose of 50 mg/kg as a solution or a .[…].suspension in water containing 0.45% of methylcellulose (which is an inert mucilaginous substance). Control animals received only distilled water as a placebo. At the same time, all the animals received 25 ml/kg of physiological saline by subcutaneous injection. The rats were then placed in metabolic cages, each cage containing 3 animals receiving the same treatment. The urines have been collected during 4 hours. […] The diuresis is expressed in ml/kg of body weight.

| Structure (SMILES) | % inhibition of acute oedema (paw of rats) | Diuresis (rats) |
| --- | --- | --- |
| CCNC(=O)NS(=O)(=O)c1cnccc1Nc1ccc(Cl)c(C(F)(F)F)c1 [JDL 488, 3-ethylcarbamylsulfonamido-4-(3'-trifluoromethyl-4'-chloro)-phenyl-aminopyridine] | 24.8% | 16.4 mL/kg |
| CCNC(=O)NS(=O)(=O)c1cnccc1Nc1ccccc1Cl [JDL 403, 3-ethylcarbamylsulfonamido-4-(2'-chloro)-phenylaminopyridine] | 76.8% | 74.9 mL/kg |
| CC(C)(C)NC(=O)NS(=O)(=O)c1cnccc1Nc1cccc(Cl)c1 [JDL 388, 3-tertiobutylcarbamylsulfonamido-4-(3'-chloro)-phenylaminopyridine] | 66.4% | 37.0 mL/kg |
| CNC(=O)NS(=O)(=O)c1cncc(C)c1Nc1cccc(Cl)c1 [JDL 501, 3-methylcarbamylsulfonamido-4-(3'-chloro)-phenylamino-5-methylpyridine] | 39.2% | 35.9 mL/kg |
| CCNC(=O)NS(=O)(=O)c1cnccc1Nc1cccc(Br)c1 [JDL 467, 3-ethylcarbamylsulfonamido-4-(3'-bromo)-phenylaminopyridine] | 69.6% | 65.8 mL/kg |
| CC(C)NC(=S)NS(=O)(=O)c1cnccc1Nc1cccc(Cl)c1 [JDL 479, 3-isopropylthiocarbamylsulfonamido-4-(3'-chloro)-phenylaminopyridine] | 45.6% | 44.3 mL/kg |
| CNC(=O)NS(=O)(=O)c1cnccc1Nc1ccccc1Cl [JDL 402, 3-methylcarbamylsulfonamidio-4-(2'-chloro)-phenylaminopyridine] | 76.8% | 65.4 mL/kg |
| CCCCNC(=O)NS(=O)(=O)c1cnccc1Sc1cccc(Cl)c1 [JDL 366, 3-butylcarbamylsulfonamido-4-(3'-chloro)-thiophenoxypyridine] | 56.0% | 11.1 mL/kg |
| CCCNC(=O)NS(=O)(=O)c1cnccc1Nc1cccc(Cl)c1 [JDL 375, 3-propylcarbamylsulfonamido-4-(3'-chloro)-phenylaminopyridine] | 46.4% | 80.5 mL/kg |
| CC(=O)NS(=O)(=O)c1cnccc1Sc1cccc(Cl)c1 [JDL 362, 3-acetylsulfonamido-4-(3-chloro)-thiophenoxy-pyridine] | 37.6% | 8.1 mL/kg |
| CNC(=O)NS(=O)(=O)c1cnccc1Nc1cccc(F)c1 [JDL 495, 3-methylcarbamylsulfonamido-4-(3'-fluoro)-phenylaminopyridine] | 66.2% | 76.3 mL/kg |
| CC(C)(C)NC(=O)NS(=O)(=O)c1cnccc1Sc1cccc(Cl)c1 [JDL 385, 3-tertiobutylcarbamylsulfonamido-4-(3'-chloro)-thiophenoxypyridine] | 46.6% | 17.6 mL/kg |
| CCNC(=O)NS(=O)(=O)c1cnccc1Nc1cccc(CC)c1 [JDL 511, 3-ethylcarbamylsulfonamido-4-(3'-ethyl)-phenylaminopyridine] | 72.0% | 66.4 mL/kg |
| O=C(NC1CCCCC1)NS(=O)(=O)c1cnccc1Nc1ccc(Cl)cc1 [JDL 426, 3-cyclohexylcarbamylsulfonamido-4-(4'-chloro)-phenylaminopyridine] | 73.6% | 22.0 mL/kg |
| CC(C)NC(=O)NS(=O)(=O)c1cnccc1NC(C)C [JDL 482, 3-isopropylcarbamylsulfonamido-4-isopropylaminopyridine] | 0% | 25.3 mL/kg |
| CNC(=O)NS(=O)(=O)c1cnccc1Nc1ccc(Cl)cc1 [JDL 415, 3-methylcarbamylsulfonamido-4-(4'-chloro)-phenylaminopyridine] | 75.2% | 47.0 mL/kg |
| O=C(NS(=O)(=O)c1cnccc1Nc1cccc(C(F)(F)F)c1)c1ccccc1 [C 2129, 3-benzoylsulfonamido-4-(3'-trifluoromethyl)-phenylaminopyridine] | 23.2% | 30.3 mL/kg |
| CC(C)(C)NC(=O)NS(=O)(=O)c1cnccc1Nc1ccc(Cl)cc1 [JDL 425, 3-tertiobutylcarbamylsulfonamido-4-(4'-chloro)-phenylaminopyridine] | 42.4% | 37.7 mL/kg |

| Structure (SMILES) | % inhibition of acute oedema (paw of rats) | Diuresis (rats) |
| --- | --- | --- |
| CC(C)NC(=O)NS(=O)(=O)c1cnccc1Nc1cccc(F)c1 [JDL 466, 3-isopropylcarbamylsulfonamido-4-(3'-fluoro)-phenylaminopyridine] | 68.0% | 70.7 mL/kg |
| CCCNC(=O)NS(=O)(=O)c1cnccc1Nc1ccc(Cl)cc1 [JDL 417, 3-propylcarbamylsulfonamido-4-(4'-chloro)-phenylaminopyridine] | 72.8% | 58.3 mL/kg |
| O=C(NC1CCCCC1)NS(=O)(=O)c1cnccc1Nc1cccc(Cl)c1 [JDL 389, 3-cyclohexylcarbamylsulfonamido-4-(3'-chloro)-phenylaminopyridine] | 64.0% | 73.3 mL/kg |
| CCNC(=O)NS(=O)(=O)c1cnccc1Nc1ccc(Cl)c(Cl)c1 [JDL 475, 3-ethylcarbamylsulfonamido-4-(3',4'-dichloro)-phenylaminopyridine] | 79.2% | 34.3 mL/kg |
| CNC(=O)NS(=O)(=O)c1cnccc1Nc1cccc(OC)c1 [JDL 493, 3-methylcarbamylsulfonamido-4-(3'-methoxy)-phenylaminopyridine] | 59.2% | 50.7 mL/kg |
| CCCCNC(=O)NS(=O)(=O)c1cnccc1NCc1ccco1 [JDL 485, 3-butylcarbamylsufonamido-4-methyl-furylaminopyridine] | 15.2% | 51.3 mL/kg |
| NS(=O)(=O)c1cnccc1Sc1cccc(Cl)c1 [JDL 361, 3-sulfonamido-4-(3'-chloro)-thiophenoxypyridine] | 56.8% | 9.6 mL/kg |
| CC(C)NC(=O)NS(=O)(=O)c1cnccc1Nc1cccc(C(F)(F)F)c1 [JDL 414, 3-isopropylcarbamylsulfonamido-4-(3'-trifluoromethyl)-phenylaminopyridine] | 75.2% | 82.9 mL/kg |
| CCc1cccc(Nc2ccncc2S(=O)(=O)NC(=O)NC(C)C)c1 [JDL 512, 3-isopropylcarbamylsulfonamido-4-(3'-ethyl)-phenylaminopyridine] | 78.7% | 65.9 mL/kg |
| CCCCNC(=O)NS(=O)(=O)c1cnccc1Nc1ccc(Cl)c(C(F)(F)F)c1 [JDL 486, 3-butylcarbamylsulfonamido-4-(3'-trifluoromethyl-4'-chloro)-phenyl aminopyridine] | 16.8% | 3.6 mL/kg |
| O=C(NC1CCCCC1)NS(=O)(=O)c1cnccc1Nc1ccccc1Cl [JDL 428, 3-cyclohexylcarbamylsulfonamido-4-(2'-chloro)-phenylamionpyridine] | 17.6% | 15.6 mL/kg |
| CCNC(=O)NS(=O)(=O)c1cnccc1Nc1cccc(C(F)(F)F)c1 [JDL 386, 3-ethylcarbamylsulfonamido-4-(3'-trifluoromethyl)-phenylaminopyridline] | 80.8% | 80.5 mL/kg |
| CCNC(=S)NS(=O)(=O)c1cnccc1Nc1cccc(C(F)(F)F)c1 [JDL 420, 3-ethylthiocarbamylsulfonamido-4-(3'trifluoromethyl)-phenylaminopyridine] | 52.8% | 65.0 mL/kg |
| COc1cccc(Nc2ccncc2S(=O)(=O)NC(=O)NC(C)C)c1 [JDL 470, 3-isopropylcarbamylsulfonamido-4-(3'-methoxy)-phenylaminopyridine] | 83.2% | 74.9 mL/kg |
| CC(C)NC(=O)NS(=O)(=O)c1cnccc1Nc1ccc(Cl)cc1 [JDL 423, 3-isopropylcarbamylsulfonamido-4-(4'-chloro)-phenylaminopyridine] | 64.0% | 68.7 mL/kg |
| O=C(Nc1ccccc1)NS(=O)(=O)c1cnccc1Nc1cccc(C(F)(F)F)c1 [JDL 368, 3-phenylcarbamylsulfonamido-4-(3'-trifluoromethyl)phenylaminopyridine] | 57.0% | 6.1 mL/kg |
| CCCCNC(=O)NS(=O)(=O)c1cnccc1Nc1ccccc1Cl [JDL 422, 3-butylcarbamylsulfonamido-4(2'-chloro)-phenylaminopyridine] | 46.4% | 56.7 mL/kg |
| NS(=O)(=O)c1cnccc1NCc1ccco1 [JDL 181, 3-sulfonamido-4-methylfurylamino-pyridine] | 21.6% | 14.8 mL/kg |

From USRE30633E, “3-Lower alkylcarbamylsulfonamido-4-phenylaminopyridines, n-oxides, derivatives thereof and pharmaceutical compositions containing same” (A. Christiaens Societe Anonyme, priority 1974, dated 1981)
